From patent US9499509B2, “Dihydrochalcone derivatives and their use as antibiotic agents” (UNIVERSITÉ DU QUÉBEC À CHICOUTIMI, priority 2012, dated 2016)
In brackets after ≈: the same amount, converted by molar mass. Read-outs that look alike come from different tables or passages of the source.

Tests used:
Corynebacterium jeikeium = assay: Antibiotic assay (resazurin, Example 1), Corynebacterium jeikeium; assay type: cell-based; settings: Corynebacterium jeikeium, Coryne. jeikeium 14139
Protocol: (§1) Bacteria Strain. […] The MRSA were obtained as further described below.
(§2) Antibiotic agents. Cyprofloxacin and erythromycin were provided by Sigma-Aldrich. Gentamicin sulfate and vancomycin hydrochloride were provided by Calbiochem.
(§3) Five additional strains were tested: Streptococcus pneumoniae, Streptococcus agalactiae, Streptococcus pyogenes, Enterococcus faecalis and Corynebacterium jeikeium.

Enterococcus faecalis = assay: Antibiotic assay (resazurin, Example 1), Enterococcus faecalis; assay type: cell-based; settings: for IC50: read-out: IC50
Protocol: as §1, §2, §3

[1] = tested on: methicillin-resistant Staphylococcus aureus (MRSA) strains; assay: Antibiotic assay (resazurin, Example 1), MRSA strains; assay type: cell-based
Excerpt: as §1, §2
Isolation and identification of methicillin-resistant Staphylococcus aureus (MRSA) strains. From March 2007 to March 2008, 35 screening swabs from nares (n=31), throat (n=3), Groin pus (n=1) were obtained from patients hospitalized at Chicoutimi hospital. Identification of S. aureus was performed using the Slidex Staph-Kit (bioMerieux Vitek, Inc., Hazelwood, Mo.) according to the manufacturer's instructions. Quality control was performed with MRSA strain ATCC 43300 and S. aureus strain ATCC 25923. In addition, S. aureus profile was determined with API Staph test strip with bacterial suspension of saline McFarland of 0.5 (bioMerieux, Durham, N.C.) according to the manufacturer's protocol. API Staph strips were held for 24 h before the results were read. A latex agglutination (SLIDEX) test detecting methicilin resistance in Staphylococci based on the production of low-affinity PBP2a, which is encoded by the mecA gene was performed on all strains. An antibiogram was also performed to confirm the identification of MRSA strains using disk diffusion test.
Antibiotic susceptibility testing using disk diffusion method. The antimicrobial activity of different classes of antibiotics of the potential MRSA was determined by diffusion method (Kirby-Bauer) as described by NCCLS. The antibiotics tested included: penicillin (10 units), amoxicillin/clavulanic acid (20/10 μg), ciprofloxacin (5 μg), moxifloxacin (5 μg), levofloxacin (5 μg), clindamycin (15 μg), erythromycin (15 μg), cefoxitin (30 μg), linezolid (30 μg), trimethoprim/sulfomethoxazole (1.25/23.75 μg), rifampicin (5 μg), gentamicin (10 μg) and vancomycin (30 μg). The agar medium had pH 7.2 to 7.4 before inoculing potentiel MRSA. The antibiotics were maintained at 8° C. or lower −14° C. according to manufacturer's recommendations. The pure culture was inoculated on a non-selective plate for 18-24 h. Each colony was collected with a wire loop and transfered the growth to a tube containing 4 to 5 mL of a tryptic-soy broth. The inoculum density was standarized with BaSO4 using 0.5 McFarland standard. All strains were incubated at 37° C. until it achieves or exceeds the turbidity of 0.5 McFarland standard. Inoculation of the dried surface (Muller-Hinton agar plate) by streaking the swab over the entire sterile agar surface. This procedure was repeated two more times. After 15 min, the appropriate disk were applied on the surface with a sterile forceps. The inverted plates was placed in a incubator at 37° C./air/16 to 18 h or 24 h for vancomycin. The inhibition zones were measured with a millimetric ruler. Interpretation of zone sizes by references of the manufacturer. Quality control organisms used were ATCC strains number 25923.
MRSA. Ten (10) strains of MRSA obtained as described above were tested along with an S. aureus wild type (WT) strain (ATCC25923).

Streptococcus agalactiae = assay: Antibiotic assay (resazurin, Example 1), Streptococcus agalactiae; assay type: cell-based; settings: for IC50: read-out: IC50
Protocol: as §1, §2, §3

S. aureus = assay: Antibiotic assay (resazurin, Example 1), S. aureus strains of Table 3; assay type: cell-based, Staphylococcus aureus; settings: for IC50: read-out: IC50; for MIC: read-out: Minimum Inhibitory Concentration (MIC)
Excerpt: as §1, §2

Streptococcus pyogenes = assay: Antibiotic assay (resazurin, Example 1), Streptococcus pyogenes; assay type: cell-based; settings: Streptococcus pyogenes; for IC50: read-out: IC50; for MIC: read-out: Minimum Inhibitory Concentration (MIC)
Protocol: as §1, §2, §3

Streptococcus pneumoniae = assay: Antibiotic assay (resazurin, Example 1), Streptococcus pneumoniae; assay type: cell-based; settings: for IC50 / MIC: Streptococcus pneumoniae; for IC50: read-out: IC50; for MIC: read-out: Minimum Inhibitory Concentration (MIC)
Protocol: as §1, §2, §3

S. epidermidis = assay: Antibiotic assay (resazurin, Example 1), S. epidermidis strains; settings: Staphylococcus epidermidis
[2] = Staphylococcus aureus, S. aureus 14094

## O=C(O)c1cn(C2CC2)c2cc(N3CCNCC3)c(F)cc2c1=O [Ciprofloxacin, reference compound]
Corynebacterium jeikeium; read-out: IC50
  IC50: 1.42 ± 0.07 µM
Corynebacterium jeikeium; read-out: Minimum Inhibitory Concentration (MIC)
  MIC: 16.4 µM (≈ 5.43 µg/mL)
Enterococcus faecalis; Ent. Faecalis 14115
  Minimum Inhibitory Concentration (MIC): (>200) μM
Enterococcus faecalis; Enterococcus faecalis, Ent. Faecalis 14078
  IC50: 15 ± 2 µM
Enterococcus faecalis; Enterococcus faecalis, Ent. Faecalis 14078, read-out: Minimum Inhibitory Concentration (MIC)
  MIC: > 200 µM
Enterococcus faecalis; Enterococcus faecalis, Ent. Faecalis 14115
  IC50: > 200 µM
Enterococcus faecalis; in words
  activity against Enterococcus faecalis 14115 strain: not active
[1]; MRSA 1
  Minimum Inhibitory Concentration (MIC): (>186) μM
[1]; MRSA 3
  Minimum Inhibitory Concentration (MIC): (>186) μM
[1]; MRSA 4
  Minimum Inhibitory Concentration (MIC): (>186) μM
[1]; MRSA 5
  Minimum Inhibitory Concentration (MIC): (>186) μM
[1]; MRSA 6
  Minimum Inhibitory Concentration (MIC): (>186) μM
[1]; MRSA 7
  Minimum Inhibitory Concentration (MIC): (>186) μM
[1]; MRSA 8
  Minimum Inhibitory Concentration (MIC): (>186) μM
[1]; MRSA 9
  Minimum Inhibitory Concentration (MIC): (>186) μM
[1]; MRSA 10
  Minimum Inhibitory Concentration (MIC): (>186) μM
[1]; Staphylococcus aureus, MRSA, MRSA1, read-out: IC50
  IC50: 102 ± 6 µM
[1]; Staphylococcus aureus, MRSA, MRSA2, read-out: IC50
  IC50: 156 ± 11 µM
[1]; Staphylococcus aureus, MRSA, MRSA2, read-out: Minimum Inhibitory Concentration (MIC)
  MIC: > 186 µM
[1]; Staphylococcus aureus, MRSA, MRSA3, read-out: IC50
  IC50: > 186 µM
[1]; Staphylococcus aureus, MRSA, MRSA4, read-out: IC50
  IC50: 134 ± 7 µM
[1]; Staphylococcus aureus, MRSA, MRSA5, read-out: IC50
  IC50: 109 ± 4 µM
[1]; Staphylococcus aureus, MRSA, MRSA6, read-out: IC50
  IC50: 131 ± 9 µM
[1]; Staphylococcus aureus, MRSA, MRSA7, read-out: IC50
  IC50: 128 ± 9 µM
[1]; Staphylococcus aureus, MRSA, MRSA8, read-out: IC50
  IC50: 119 ± 9 µM
[1]; Staphylococcus aureus, MRSA, MRSA9, read-out: IC50
  IC50: 106 ± 11 µM
[1]; Staphylococcus aureus, MRSA, MRSA10, read-out: IC50
  IC50: 122 ± 16 µM
[1]; Staphylococcus aureus, MRSA, all MRSA strains, read-out: IC50 values against the MRSA strains
  IC50: 100 to 150 µM
Streptococcus agalactiae; Strep. agalactiae 14151
  Minimum Inhibitory Concentration (MIC): (>200) μM
Streptococcus agalactiae; Strep. agalactiae 14153
  Minimum Inhibitory Concentration (MIC): (>200) μM
Streptococcus agalactiae; Streptococcus agalactiae, Strep. agalactiae 14150
  IC50: 138 ± 10 µM
Streptococcus agalactiae; Streptococcus agalactiae, Strep. agalactiae 14150, read-out: Minimum Inhibitory Concentration (MIC)
  MIC: > 200 µM
Streptococcus agalactiae; Streptococcus agalactiae, Strep. agalactiae 14151
  IC50: > 200 µM
Streptococcus agalactiae; Streptococcus agalactiae, Strep. agalactiae 14153
  IC50: 190 ± 10 µM
S. aureus; S. aureus 14108
  IC50: < 1.56 µM
S. aureus; S. aureus 14118
  IC50: < 1.56 µM
S. aureus; S. aureus 14154
  IC50: < 1.56 µM
S. aureus; [2]
  IC50: < 1.56 µM
  MIC: 87.6 µM (≈ 29 µg/mL)
S. aureus; Staphylococcus aureus, S. aureus 14108
  MIC: 66.8 µM (≈ 22.1 µg/mL)
S. aureus; Staphylococcus aureus, S. aureus 14118
  MIC: 65.1 µM (≈ 21.6 µg/mL)
S. aureus; Staphylococcus aureus, S. aureus 14154
  MIC: 25.1 µM (≈ 8.32 µg/mL)
Streptococcus pyogenes; Strep. pyogenes 14149
  IC50: 43 ± 2 µM
  MIC: 169 µM (≈ 56 µg/mL)
Streptococcus pyogenes; Strep. pyogenes 14152
  IC50: 0.6 ± 1 µM
  MIC: 37.4 µM (≈ 12.4 µg/mL)
Streptococcus pneumoniae; Strep. pneumoniae 14070
  IC50: > 200 µM
  MIC: > 200 µM
Streptococcus pneumoniae; Strep. pneumoniae 14112
  IC50: 63 ± 6 µM
  MIC: 200 µM (≈ 66.3 µg/mL)
Streptococcus pneumoniae; Strep. pneumoniae 14138
  IC50: > 200 µM
  MIC: > 200 µM
Streptococcus pneumoniae; Strep. pneumoniae 14144
  IC50: > 200 µM
  MIC: > 200 µM
Streptococcus pneumoniae; Strep. pneumoniae 14148
  IC50: 56 ± 6 µM
  MIC: 200 µM (≈ 66.3 µg/mL)
Streptococcus pneumoniae; in words
  activity against Streptococcus pneumoniae strain 14144: not active
S. epidermidis; S. epidermidis 14069
  IC50: 31 ± 2 µM
S. epidermidis; S. epidermidis 14085
  IC50: 26.3 ± 0.8 µM
S. epidermidis; S. epidermidis 14093
  IC50: < 1.56 µM
S. epidermidis; S. epidermidis 14134
  IC50: 44 ± 1 µM
S. epidermidis; S. epidermidis 14143
  IC50: 80 ± 7 µM
S. epidermidis; read-out: Minimum Inhibitory Concentration (MIC), S. epidermidis 14069
  MIC: > 200 µM
S. epidermidis; read-out: Minimum Inhibitory Concentration (MIC), S. epidermidis 14085
  MIC: > 200 µM
S. epidermidis; read-out: Minimum Inhibitory Concentration (MIC), S. epidermidis 14093
  MIC: 77.1 µM (≈ 25.5 µg/mL)
S. epidermidis; read-out: Minimum Inhibitory Concentration (MIC), S. epidermidis 14134
  MIC: > 200 µM
S. epidermidis; read-out: Minimum Inhibitory Concentration (MIC), S. epidermidis 14143
  MIC: > 200 µM
